Tested on: T1, endo-1,4-β-xylanase
T1 construct: gene GH10 xylanase; codon-optimised synthetic gene in pET26b(+); N-terminal PelB leader, C-terminal 6xHis, tags kept; ~81 kDa; E. coli BL21(DE3)
Assay: fluorescence of released CMU (ex […] nm, em […] nm), Lineweaver-Burk
Format: biochemical, uncultured bacterium
Conditions: pH 7, 37°C, 50 mM sodium phosphate

- Km: 32 ± 4.72 µM
SMILES: Cc1cc(=O)oc2cc(O[C@@H]3OC[C@@H](O[C@@H]4OC[C@@H](O)[C@H](O)[C@H]4O)[C@H](O)[C@H]3O)c(Cl)cc12 [CMU-X2, 6-chloro-4-methylumbelliferyl xylobioside]

From paper PMC6314593, “Characterization of novel lignocellulose-degrading enzymes from the porcupine microbiome using synthetic metagenomics” (PLoS ONE, 2019)
